Values quoted from earlier work as cited in US20140294923A1, “ACTH FOR TREATMENT OF MIGRAINE HEADACHE” (priority 2013, published 2014).

Test system: CGRP release
Conditions: experimental models; Ulrich-Lai 2001

ACTH (SYSMEHFRWGKPVGKKRRPVKVYPDGAEDQLAEAFPLEF)
release of CGRP: inhibit the release of CGRP
